Test: in vivo Pimecrolimus release from stent implanted in porcine model, residual drug load by HPLC
Settings: PLGA matrix reservoir stent, FIG. 4, porcine
Text: In the example of FIG. 4, a stent is cut from a cobalt chromium alloy according to the pattern shown in FIGS. 1 and 2 and Pimecrolimus is loaded in a PLGA matrix within reservoirs in the stent. The drug and matrix are arranged for directional delivery of the drug primarily to the mural side of the stent. The in vivo drug release rate is programmed by providing different concentrations of drug in different regions of the matrix similar to the regions shown in FIG. 3, with a luminal region 50 of primarily PLGA, a middle region 60 of about 75% Pimecrolimus and about 25% PLGA, and a mural region 70 of about 95% Pimecrolimus and about 5% PLGA. The reservoirs are filled, by volume, with about 20-25% base or luminal region, 40-45% middle region, and 25-30% mural region. The in vivo drug releases described herein are normalized for a 3.0 mm diameter×16 mm long expanded stent which has almost 500 reservoirs and a total drug volume of about 0.54 mm^3.
The measurement of in vivo Pimecrolimus release from a stent can be performed according to the following Example. The in vivo release from other implantable medical devices can be performed in a similar manner by removal of tissue and measurement of total drug load and release kinetics by high pressure liquid chromatography (HPLC).
Stents are implanted in a porcine model and explanted at selected time points by removing the entire artery section. The expanded stents are labeled and frozen. The tissue is removed from the stent by slicing the tissue on the outside of the stent lengthwise, inverting the tissue, and removing the tissue by cutting and turning the tissue inside out. The stent may still be covered by a tough elastic membrane which is then removed by splitting the membrane and peeling it off the stent. For longer time points, there will also be a tube of tissue inside the stent. This tube is separated from the stent with tweezers, turned inside out and pulled out of the stent.
The following is the test procedure for generating the in vivo release curves for Pimecrolimus in FIG. 4.
The total drug load (TDL) of Pimecrolimus from a stent is determined by extracting all the polymer and drug from the stent in the solvent acetonitrile. The amount of Pimecrolimus in a solution sample is determined by High Pressure Liquid Chromatography (HPLC). The following conditions are used:
The in vivo release kinetic (RK) for Pimecrolimus from a stent is determined by running the TDL for multiple explanted time points. The TDL for the explanted samples is subtracted from the TDL of an unimplanted stent to determine the amount of Pimecrolimus released at each of the explanted time points.

in vivo cumulative release, percent of total Pimecrolimus loaded on stent (4 hour): about 10%
in vivo cumulative release, percent of total Pimecrolimus loaded on stent (24 hour): about 25%
in vivo cumulative release, percent of total Pimecrolimus loaded on stent (2 day): about 40%
in vivo cumulative release, percent of total Pimecrolimus loaded on stent (8 day): about 50%
in vivo cumulative release, percent of total Pimecrolimus loaded on stent (30 day): about 70%
in vivo cumulative release, percent of total Pimecrolimus loaded on stent (50 day): about 70%
Compound: CC[C@@H]1/C=C(\C)C[C@H](C)C[C@H](OC)[C@H]2O[C@@](O)(C(=O)C(=O)N3CCCC[C@H]3C(=O)O[C@H](/C(C)=C/[C@@H]3CC[C@H](Cl)[C@H](OC)C3)[C@H](C)[C@@H](O)CC1=O)[C@H](C)C[C@@H]2OC [Pimecrolimus]
